Experimental data as given in ChEMBL document CHEMBL3046701, “Synthesis and biological activities of some N-hydroxymethylene and N-methoxymethylene thiazines” (Med Chem Res, 2007).

Columns and labels:
[1] = Toxicity in po dosed Mus musculus albino (mouse); type: organism-based; conditions: in vivo
[2] = test system: Penicillium; test: Antifungal activity against Penicillium inclobium at 100 ug/ml after 72 to 96 hr by disk diffusion method; type: functional; conditions: read-out: IZ
[3] = test system: Staphylococcus aureus; test: Antibacterial activity against Staphylococcus aureus at 100 ug/ml after 24 hr by disk diffusion method; type: functional; conditions: read-out: IZ
[4] = test system: Bacillus subtilis; test: Antibacterial activity against Bacillus subtilis at 100 ug/ml after 24 hr by disk diffusion method; type: functional; conditions: read-out: IZ
[5] = test system: Escherichia coli; test: Antibacterial activity against Escherichia coli at 100 ug/ml after 24 hr by disk diffusion method; type: functional; conditions: read-out: IZ
[6] = test system: Klebsiella pneumoniae; test: Antibacterial activity against Klebsiella pneumoniae at 100 ug/ml after 24 hr by disk diffusion method; type: functional; conditions: read-out: IZ
[7] = test system: Aspergillus flavus; test: Antifungal activity against Aspergillus flavus at 100 ug/ml after 72 to 96 hr by disk diffusion method; type: functional; conditions: read-out: IZ
[8] = test system: Penicillium; test: Antifungal activity against Penicillium inclobium at 50 ug/ml after 72 to 96 hr by disk diffusion method; type: functional; conditions: read-out: IZ
[9] = test system: Staphylococcus aureus; test: Antibacterial activity against Staphylococcus aureus at 50 ug/ml after 24 hr by disk diffusion method; type: functional; conditions: read-out: IZ
[10] = test system: Bacillus subtilis; test: Antibacterial activity against Bacillus subtilis at 50 ug/ml after 24 hr by disk diffusion method; type: functional; conditions: read-out: IZ
[11] = test system: Escherichia coli; test: Antibacterial activity against Escherichia coli at 50 ug/ml after 24 hr by disk diffusion method; type: functional; conditions: read-out: IZ
[12] = test system: Klebsiella pneumoniae; test: Antibacterial activity against Klebsiella pneumoniae at 50 ug/ml after 24 hr by disk diffusion method; type: functional; conditions: read-out: IZ
[13] = test system: Aspergillus flavus; test: Antifungal activity against Aspergillus flavus at 50 ug/ml after 72 to 96 hr by disk diffusion method; type: functional; conditions: read-out: IZ
[14] = test system: Penicillium; test: Antifungal activity against Penicillium inclobium at 25 ug/ml after 72 to 96 hr by disk diffusion method; type: functional; conditions: read-out: IZ
[15] = test system: Staphylococcus aureus; test: Antibacterial activity against Staphylococcus aureus at 25 ug/ml after 24 hr by disk diffusion method; type: functional; conditions: read-out: IZ
[16] = test system: Bacillus subtilis; test: Antibacterial activity against Bacillus subtilis at 25 ug/ml after 24 hr by disk diffusion method; type: functional; conditions: read-out: IZ
[17] = test system: Escherichia coli; test: Antibacterial activity against Escherichia coli at 25 ug/ml after 24 hr by disk diffusion method; type: functional; conditions: read-out: IZ
[18] = test system: Klebsiella pneumoniae; test: Antibacterial activity against Klebsiella pneumoniae at 25 ug/ml after 24 hr by disk diffusion method; type: functional; conditions: read-out: IZ
[19] = test system: Aspergillus flavus; test: Antifungal activity against Aspergillus flavus at 25 ug/ml after 72 to 96 hr by disk diffusion method; type: functional; conditions: read-out: IZ
[20] = test system: Aspergillus flavus; test: Antifungal activity against Aspergillus flavus after 72 to 96 hr by disk diffusion method; type: functional
[21] = test system: Penicillium; test: Antifungal activity against Penicillium inclobium after 72 to 96 hr by disk diffusion method; type: functional
[22] = test system: Staphylococcus aureus; test: Antibacterial activity against Staphylococcus aureus after 24 hr by disk diffusion method; type: functional
[23] = test system: Bacillus subtilis; test: Antibacterial activity against Bacillus subtilis after 24 hr by disk diffusion method; type: functional
[24] = test system: Escherichia coli; test: Antibacterial activity against Escherichia coli after 24 hr by disk diffusion method; type: functional
[25] = test system: Klebsiella pneumoniae; test: Antibacterial activity against Klebsiella pneumoniae after 24 hr by disk diffusion method; type: functional

SMILES: O=S1(=O)CC(c2ccc(Cl)cc2)NC(c2ccc(Cl)cc2)C1 (stereo unspecified)
- LD50 [1]: ≤ 1000 mg/kg

SMILES: O=S1(=O)CC(c2ccc(Cl)cc2)N(CO)C(c2ccc(Cl)cc2)C1 (stereo unspecified)
- LD50 [1]: ≤ 1000 mg/kg

SMILES: COCN1C(c2ccccc2)CS(=O)(=O)CC1c1ccccc1 (stereo unspecified)
- zone of inhibition at 100 µg/mL [2]: 7 mm
- zone of inhibition at 100 µg/mL [3]: 7 mm
- zone of inhibition at 100 µg/mL [4]: 6 mm
- zone of inhibition at 100 µg/mL [5]: 9 mm
- zone of inhibition at 100 µg/mL [6]: 7 mm
- zone of inhibition at 100 µg/mL [7]: 6 mm

SMILES: COCN1C(c2ccc(OC)cc2)CS(=O)(=O)CC1c1ccc(OC)cc1 (stereo unspecified)
- zone of inhibition at 50 µg/mL [8]: 11 mm
- zone of inhibition at 50 µg/mL [9]: 12 mm
- zone of inhibition at 50 µg/mL [10]: 12 mm
- zone of inhibition at 50 µg/mL [11]: 11 mm
- zone of inhibition at 50 µg/mL [12]: 11 mm
- zone of inhibition at 50 µg/mL [13]: 10 mm

SMILES: COCN1C(c2ccc(Cl)cc2)CS(=O)(=O)CC1c1ccc(Cl)cc1 (stereo unspecified)
- zone of inhibition at 25 µg/mL [14]: 14 mm
- zone of inhibition at 25 µg/mL [15]: 15 mm
- zone of inhibition at 25 µg/mL [16]: 15 mm
- zone of inhibition at 25 µg/mL [17]: 16 mm
- zone of inhibition at 25 µg/mL [18]: 16 mm
- zone of inhibition at 25 µg/mL [19]: 12 mm

SMILES: COC1=CC(=O)C[C@@H](C)[C@]12Oc1c(Cl)c(OC)cc(OC)c1C2=O [GRISEOFULVIN]
- inhibition zone (IZ) [20]: 22 mm
- inhibition zone (IZ) [21]: 22 mm

SMILES: CCn1cc(C(=O)O)c(=O)c2cc(F)c(N3CCNCC3)cc21 [NORFLOXACIN]
- inhibition zone (IZ) [22]: 22 mm
- inhibition zone (IZ) [23]: 22 mm
- inhibition zone (IZ) [24]: 22 mm
- inhibition zone (IZ) [25]: 22 mm
